Results from patent EP4635500A1, “THERAPEUTIC AGENT FOR BACTERIAL INFECTION” (Sumitomo Pharma Co., Ltd., priority 2022, dated 2024).
Converted amounts (≈) assume the structure as drawn. Where two headings read alike, the source gives them in different places.

Tests used:
Format in all cases: cell-based
Providencia rettgeri = experiment: MIC, broth microdilution, standard strains and Japanese clinical isolates (Example 5, Table 4); details: ATCCBAA2525; KUB4010 Providencia rettgeri ATCC BAA-2525, OXA-181
Escherichia coli = experiment: as above; details: ATCCBAA2452; KUB4005 Escherichia coli ATCC BAA-2452, NDM-1
CRE and CPE strains = experiment: MIC, broth microdilution, standard strains and Japanese clinical isolates (Example 5, Table 4 continued; organism of each KUB strain not given)
Klebsiella pneumoniae = experiment: MIC, broth microdilution, standard strains and Japanese clinical isolates (Example 5, Table 4); details: IMP-6
P. aeruginosa = experiment: MIC, broth microdilution, CDC/FDA Antibiotic Resistance Isolate Bank (Example 7, Tables 10, 15); details: for MIC: Pseudomonas aeruginosa, read-out: MIC

C[C@H]1[C@H](NC(=O)/C(=N\OC(C)(C)C(=O)O)c2csc(N)n2)C(=O)N1S(=O)(=O)O [Aztreonam, aztreonam]
MIC (Providencia rettgeri): 1 µg/mL (≈ 2.3 µM) | MIC (Escherichia coli): 4 µg/mL (≈ 9.19 µM) | MIC (CRE and CPE strains; strain KUB3149, carbapenemase gene NDM-1, read-out: MIC): 8 µg/mL (≈ 18.4 µM) | MIC (CRE and CPE strains; strain KUB3150, carbapenemase gene OXA-48, read-out: MIC): 8 µg/mL (≈ 18.4 µM) | MIC (CRE and CPE strains; strain KUB3151, carbapenemase gene IMP-1, read-out: MIC): 0.25 µg/mL (≈ 0.574 µM) | MIC (CRE and CPE strains; strain KUB3158, carbapenemase gene OXA-48): 0.12 µg/mL (≈ 0.276 µM) | MIC (CRE and CPE strains; strain KUB3163, carbapenemase gene IMP-1): 0.12 µg/mL (≈ 0.276 µM) | MIC (CRE and CPE strains; strain KUB3164, carbapenemase gene IMP-6): 16 µg/mL (≈ 36.7 µM) | MIC (CRE and CPE strains; strain KUB3165, carbapenemase gene IMP-34): ≤ 0.03 µg/mL | MIC (CRE and CPE strains; strain KUB3166, carbapenemase gene IMP-1): 4 µg/mL (≈ 9.19 µM) | MIC (CRE and CPE strains; strain KUB3628, carbapenemase gene IMP-1): 0.06 µg/mL (≈ 0.138 µM) | MIC (Klebsiella pneumoniae; KUB3633 Klebsiella pneumoniae Clinical isolate): 8 µg/mL (≈ 18.4 µM) | MIC (Klebsiella pneumoniae; KUB3634 Klebsiella pneumoniae Clinical isolate): 16 µg/mL (≈ 36.7 µM) | MIC against 26 metallo-carbapenemase-producing strains MIC50 (P. aeruginosa; 26 metallo-carbapenemase-producing P. aeruginosa strains, β-lactamase inhibitor µg/mL in parentheses): 16 µg(mL) | MIC against 96 strains of P. aeruginosa MIC50 (P. aeruginosa; 96 strains of P. aeruginosa, β-lactamase inhibitor µg/mL in parentheses): 16 µg(mL) | MIC (P. aeruginosa; P. aeruginosa KUB No. 579, AR Bank # 447): 4 µg/mL (≈ 9.19 µM) | MIC (P. aeruginosa; P. aeruginosa KUB No. 5551, AR Bank # 54): 32 µg/mL (≈ 73.5 µM) | MIC (P. aeruginosa; P. aeruginosa KUB No. 5561, AR Bank # 64): 16 µg/mL (≈ 36.7 µM) | MIC (P. aeruginosa; P. aeruginosa KUB No. 5592, AR Bank # 95): 16 µg/mL (≈ 36.7 µM) | MIC (P. aeruginosa; P. aeruginosa KUB No. 5597, AR Bank # 100): 32 µg/mL (≈ 73.5 µM) | MIC (P. aeruginosa; P. aeruginosa KUB No. 5600, AR Bank # 103): 16 µg/mL (≈ 36.7 µM) | MIC (P. aeruginosa; P. aeruginosa KUB No. 5602, AR Bank # 105): 32 µg/mL (≈ 73.5 µM) | MIC (P. aeruginosa; P. aeruginosa KUB No. 5605, AR Bank # 108): 8 µg/mL (≈ 18.4 µM) | MIC (P. aeruginosa; P. aeruginosa KUB No. 5607, AR Bank # 110): 4 µg/mL (≈ 9.19 µM) | MIC (P. aeruginosa; P. aeruginosa KUB No. 5608, AR Bank # 111): 2 µg/mL (≈ 4.59 µM) | MIC (P. aeruginosa; P. aeruginosa KUB No. 5663, AR Bank # 230): 4 µg/mL (≈ 9.19 µM) | MIC (P. aeruginosa; P. aeruginosa KUB No. 5665, AR Bank # 232): 4 µg/mL (≈ 9.19 µM) | MIC (P. aeruginosa; P. aeruginosa KUB No. 5666, AR Bank # 23): 16 µg/mL (≈ 36.7 µM) | MIC (P. aeruginosa; P. aeruginosa KUB No. 5667, AR Bank # 234): 2 µg/mL (≈ 4.59 µM) | MIC (P. aeruginosa; P. aeruginosa KUB No. 5669, AR Bank # 236): 2 µg/mL (≈ 4.59 µM) | MIC (P. aeruginosa; P. aeruginosa KUB No. 5670, AR Bank # 237): 4 µg/mL (≈ 9.19 µM) | MIC (P. aeruginosa; P. aeruginosa KUB No. 5671, AR Bank # 238): 4 µg/mL (≈ 9.19 µM) | MIC (P. aeruginosa; P. aeruginosa KUB No. 5672, AR Bank # 239): 32 µg/mL (≈ 73.5 µM) | MIC (P. aeruginosa; P. aeruginosa KUB No. 5673, AR Bank # 240): 32 µg/mL (≈ 73.5 µM) | MIC (P. aeruginosa; P. aeruginosa KUB No. 5674, AR Bank # 241): 32 µg/mL (≈ 73.5 µM) | MIC (P. aeruginosa; P. aeruginosa KUB No. 5675, AR Bank # 242): 4 µg/mL (≈ 9.19 µM) | MIC (P. aeruginosa; P. aeruginosa KUB No. 5676, AR Bank # 243): 2 µg/mL (≈ 4.59 µM) | MIC (P. aeruginosa; P. aeruginosa KUB No. 5677, AR Bank # 244): 32 µg/mL (≈ 73.5 µM) | MIC (P. aeruginosa; P. aeruginosa KUB No. 5678, AR Bank # 245): 16 µg/mL (≈ 36.7 µM) | MIC (P. aeruginosa; P. aeruginosa KUB No. 5680, AR Bank # 247): 4 µg/mL (≈ 9.19 µM) | MIC (P. aeruginosa; P. aeruginosa KUB No. 5681, AR Bank # 248): 4 µg/mL (≈ 9.19 µM) | MIC (P. aeruginosa; P. aeruginosa KUB No. 5682, AR Bank # 249): 32 µg/mL (≈ 73.5 µM) | MIC (P. aeruginosa; P. aeruginosa KUB No. 5684, AR Bank # 251): 32 µg/mL (≈ 73.5 µM) | MIC (P. aeruginosa; P. aeruginosa KUB No. 5685, AR Bank # 252): 32 µg/mL (≈ 73.5 µM) | MIC (P. aeruginosa; P. aeruginosa KUB No. 5686, AR Bank # 253): 16 µg/mL (≈ 36.7 µM) | MIC (P. aeruginosa; P. aeruginosa KUB No. 5687, AR Bank # 254): 4 µg/mL (≈ 9.19 µM) | MIC (P. aeruginosa; P. aeruginosa KUB No. 5688, AR Bank # 255): 8 µg/mL (≈ 18.4 µM) | MIC (P. aeruginosa; P. aeruginosa KUB No. 5689, AR Bank # 256): 4 µg/mL (≈ 9.19 µM) | MIC (P. aeruginosa; P. aeruginosa KUB No. 5690, AR Bank # 257): 8 µg/mL (≈ 18.4 µM) | MIC (P. aeruginosa; P. aeruginosa KUB No. 5691, AR Bank # 258): 4 µg/mL (≈ 9.19 µM) | MIC (P. aeruginosa; P. aeruginosa KUB No. 5692, AR Bank # 259): 4 µg/mL (≈ 9.19 µM) | MIC (P. aeruginosa; P. aeruginosa KUB No. 5693, AR Bank # 260): 8 µg/mL (≈ 18.4 µM) | MIC (P. aeruginosa; P. aeruginosa KUB No. 5694, AR Bank # 261): 4 µg/mL (≈ 9.19 µM) | MIC (P. aeruginosa; P. aeruginosa KUB No. 5695, AR Bank # 262): 16 µg/mL (≈ 36.7 µM) | MIC (P. aeruginosa; P. aeruginosa KUB No. 5696, AR Bank # 263): 2 µg/mL (≈ 4.59 µM) | MIC (P. aeruginosa; P. aeruginosa KUB No. 5697, AR Bank # 264): 2 µg/mL (≈ 4.59 µM) | MIC (P. aeruginosa; P. aeruginosa KUB No. 5698, AR Bank # 265): 8 µg/mL (≈ 18.4 µM) | MIC (P. aeruginosa; P. aeruginosa KUB No. 5699, AR Bank # 266): 4 µg/mL (≈ 9.19 µM) | MIC (P. aeruginosa; P. aeruginosa KUB No. 5700, AR Bank # 267): 4 µg/mL (≈ 9.19 µM) | MIC (P. aeruginosa; P. aeruginosa KUB No. 5701, AR Bank # 268): 32 µg/mL (≈ 73.5 µM) | MIC (P. aeruginosa; P. aeruginosa KUB No. 5702, AR Bank # 269): 16 µg/mL (≈ 36.7 µM) | MIC (P. aeruginosa; P. aeruginosa KUB No. 5703, AR Bank # 270): 2 µg/mL (≈ 4.59 µM) | MIC (P. aeruginosa; P. aeruginosa KUB No. 5704, AR Bank # 271): 16 µg/mL (≈ 36.7 µM) | MIC (P. aeruginosa; P. aeruginosa KUB No. 5705, AR Bank # 272): 4 µg/mL (≈ 9.19 µM) | MIC (P. aeruginosa; P. aeruginosa KUB No. 5749, AR Bank # 353): 8 µg/mL (≈ 18.4 µM) | MIC (P. aeruginosa; P. aeruginosa KUB No. 5750, AR Bank # 354): 16 µg/mL (≈ 36.7 µM) | MIC (P. aeruginosa; P. aeruginosa KUB No. 5754, AR Bank # 358): 32 µg/mL (≈ 73.5 µM) | MIC (P. aeruginosa; P. aeruginosa KUB No. 5755, AR Bank # 359): 32 µg/mL (≈ 73.5 µM) | MIC (P. aeruginosa; P. aeruginosa KUB No. 5756, AR Bank # 360): 16 µg/mL (≈ 36.7 µM) | MIC (P. aeruginosa; P. aeruginosa KUB No. 5785, AR Bank # 439): 4 µg/mL (≈ 9.19 µM) | MIC (P. aeruginosa; P. aeruginosa KUB No. 5786, AR Bank # 440): 32 µg/mL (≈ 73.5 µM) | MIC (P. aeruginosa; P. aeruginosa KUB No. 5789, AR Bank # 444): 8 µg/mL (≈ 18.4 µM) | MIC (P. aeruginosa; P. aeruginosa KUB No. 5800, AR Bank # 457): 32 µg/mL (≈ 73.5 µM) | MIC (P. aeruginosa; P. aeruginosa KUB No. 5805, AR Bank # 863): 16 µg/mL (≈ 36.7 µM) | MIC (P. aeruginosa; P. aeruginosa KUB No. 5813, AR Bank # 508): > 0.064 µg/mL | MIC (P. aeruginosa; P. aeruginosa KUB No. 5814, AR Bank # 509): 0.008 µg/mL (≈ 0.0184 µM) | MIC (P. aeruginosa; P. aeruginosa KUB No. 5815, AR Bank # 510): 0.0005 µg/mL (≈ 0.00115 µM) | MIC (P. aeruginosa; P. aeruginosa KUB No. 5816, AR Bank # 511): 0.004 µg/mL (≈ 0.00919 µM) | MIC (P. aeruginosa; P. aeruginosa KUB No. 5817, AR Bank # 512): 0.032 µg/mL (≈ 0.0735 µM) | MIC (P. aeruginosa; P. aeruginosa KUB No. 5818, AR Bank # 513): 0.032 µg/mL (≈ 0.0735 µM) | MIC (P. aeruginosa; P. aeruginosa KUB No. 5819, AR Bank # 514): 0.004 µg/mL (≈ 0.00919 µM) | MIC (P. aeruginosa; P. aeruginosa KUB No. 5820, AR Bank # 515): 0.032 µg/mL (≈ 0.0735 µM) | MIC (P. aeruginosa; P. aeruginosa KUB No. 5821, AR Bank # 516): > 0.064 µg/mL | MIC (P. aeruginosa; P. aeruginosa KUB No. 5823, AR Bank # 518): > 0.064 µg/mL | MIC (P. aeruginosa; P. aeruginosa KUB No. 5831, AR Bank # 526): 0.004 µg/mL (≈ 0.00919 µM) | MIC (P. aeruginosa; P. aeruginosa KUB No. 5832, AR Bank # 527): 0.032 µg/mL (≈ 0.0735 µM) | MIC (P. aeruginosa; P. aeruginosa KUB No. 5834, AR Bank # 529): 0.008 µg/mL (≈ 0.0184 µM)
